Laboratory results taken from PMC6225228, “Design, Synthesis and Evaluation of N-pyrazinylbenzamides as Potential Antimycobacterial Agents” (Molecules : A Journal of Synthetic Chemistry and Natural …, 2018).
≈ marks a conversion by molar mass, not a printed value. Read-outs that look alike come from different tables or passages of the source.

What was measured:
[1] = system: Aspergillus fumigatus 231; experiment: Antifungal microdilution broth, AF; assay type: cell-based; conditions: read-out: MIC AF
[2] = system: Pseudomonas aeruginosa CCM 1961; experiment: Antibacterial microdilution broth, PA; assay type: cell-based; conditions: Pseudomonas aeruginosa, read-out: MIC PA
[3] = system: Escherichia coli CCM 4517; experiment: Antibacterial microdilution broth, EC; assay type: cell-based; conditions: Escherichia coli, read-out: MIC EC
[4] = system: Candida krusei E28; experiment: Antifungal microdilution broth, CK; assay type: cell-based; conditions: Pichia kudriavzevii, read-out: MIC CK
[5] = system: Mycobacterium tuberculosis H37Rv CNCTC My 331/88 (ATCC 27294); experiment: Antimycobacterial microdilution MABA, M. tuberculosis; assay type: cell-based; conditions: for MIC: Mycobacterium tuberculosis
[6] = system: Candida tropicalis 156; experiment: Antifungal microdilution broth, CT; assay type: cell-based; conditions: read-out: MIC CT
[7] = system: Enterococcus sp. J 14365/08; experiment: Antibacterial microdilution broth, EF; assay type: cell-based; conditions: Enterococcus, read-out: MIC EF
[8] = system: Trichosporon asahii 1188; experiment: Antifungal microdilution broth, TA; assay type: cell-based; conditions: read-out: MIC TA
[9] = system: M. kansasii CNCTC My 235/80 (ATCC 12478); experiment: Antimycobacterial microdilution MABA, M. kansasii; assay type: cell-based, Mycobacterium kansasii; conditions: Mycobacterium kansasii, ATCC12478, pH 6.6, read-out: M. kans. ATCC 12478 MIC, Middlebrook 7H9 with OADC, pH 6.6, MABA
[10] = system: Staphylococcus aureus CCM 4516/08; experiment: Antibacterial microdilution broth, SA; assay type: cell-based; conditions: Staphylococcus aureus
[11] = system: Candida albicans ATCC 44859; experiment: Antifungal microdilution broth, CA; assay type: cell-based; conditions: Candida albicans, read-out: MIC CA
[12] = human, HepG2 cells
[13] = system: Staphylococcus aureus H 5996/08 methicillin resistant; experiment: microbe, parasite or virus in culture; assay type: cell-based; conditions: for MIC: Staphylococcus aureus, MRSA, read-out: MIC MRSA
[14] = system: Candida glabrata 20/I; experiment: Antifungal microdilution broth, CG; assay type: cell-based; conditions: Nakaseomyces glabratus, 20/I, read-out: MIC CG
[15] = system: eight fungal strains of clinical importance; experiment: Antifungal microdilution, all tested fungal strains; assay type: cell-based; conditions: Trichophyton interdigitale, read-out: MIC, all tested fungal strains
[16] = system: Mycobacterium smegmatis CCM 4622 (ATCC 607); experiment: Antimycobacterial microdilution, M. smegmatis; assay type: cell-based; conditions: Mycolicibacterium smegmatis, read-out: M. smeg. ATCC 607 MIC
[17] = system: M. avium ssp. avium CNCTC My 80/72 (ATCC 15769); experiment: Antimycobacterial microdilution MABA, M. avium; assay type: cell-based, Mycobacterium avium; conditions: Mycobacterium avium, ATCC15769, pH 6.6, read-out: M. avium ATCC 15769 MIC
[18] = system: Lichtheimia corymbifera 272; experiment: Antifungal microdilution broth, LC; assay type: cell-based; conditions: read-out: MIC LC
[19] = system: Staphylococcus epidermidis H 6966/08; experiment: Antibacterial microdilution broth, SE; assay type: cell-based; conditions: read-out: MIC SE
[20] = system: Trichophyton interdigitale 445; experiment: Antifungal microdilution broth, TI; assay type: cell-based; conditions: read-out: MIC TI
[21] = Confirmatory prolonged HepG2 cytotoxicity, CellTox Green Cytotoxicity Assay; conditions: human, HepG2 cells
[22] = Aspergillus fumigatus, 231, 24 h
[23] = Aspergillus fumigatus, 231, 48 h
[24] = read-out: Mtb H37Rv ATCC 27294 MIC, Middlebrook 7H9 with OADC growth supplement, pH = 6.6, MABA
[25] = read-out: Mtb MIC, molar concentration
[26] = Trichosporon asahii, 1188, 24 h
[27] = Trichosporon asahii, 1188, 48 h
[28] = CCM4516, 24 h, read-out: MIC SA, 24 h
[29] = CCM4516, 48 h, read-out: MIC SA, 48 h
[30] = Lichtheimia corymbifera, 272, 24 h
[31] = Lichtheimia corymbifera, 272, 48 h
[32] = Staphylococcus epidermidis, H6966/08, 24 h
[33] = Staphylococcus epidermidis, H6966/08, 48 h
[34] = Trichophyton interdigitale, 445, 72 h
[35] = Trichophyton interdigitale, 445, 120 h

Compound `CC(=O)Oc1ccccc1C(=O)Nc1cnc(Cl)cn1` [Compound 2b-Ac] has an MIC [1, 22] of 250 µM (≈ 72.9 µg/mL), an MIC [1, 23] of 250 µM (≈ 72.9 µg/mL) and an MIC ([2]; CCM1961, 72 h) of over 250 µM. It also gave an MIC ([2]; CCM1961, 120 h) of over 250 µM, an MIC ([3]; CCM4517, 24 h) of over 250 µM and an MIC ([3]; CCM4517, 48 h) of over 250 µM. For the same compound, the MIC ([4]; E28, 24 h) was 125 µM (≈ 36.5 µg/mL), the MIC ([4]; E28, 48 h) was 125 µM (≈ 36.5 µg/mL) and the MIC [5, 24] was 12.5 mg/L. It also gave an MIC [5, 25] of 42.9 µM, an MIC ([6]; Candida tropicalis, 156, 24 h) of 250 µM (≈ 72.9 µg/mL) and an MIC ([6]; Candida tropicalis, 156, 48 h) of 250 µM (≈ 72.9 µg/mL). The MIC ([7]; SP.J14365/08, 24 h) was 250 µM (≈ 72.9 µg/mL), the MIC ([7]; SP.J14365/08, 48 h) was over 250 µM and the MIC [8, 26] was 125 µM (≈ 36.5 µg/mL). It also gave an MIC [8, 27] of 125 µM (≈ 36.5 µg/mL), an MIC [9] of 12.5 mg/L (≈ 42.9 µM) and an MIC [10, 28] of 62.5 µM (≈ 18.2 µg/mL). For the same compound, the MIC [10, 29] was 125 µM (≈ 36.5 µg/mL), the MIC ([11]; ATCC44859, 24 h) was 125 µM (≈ 36.5 µg/mL) and the MIC ([11]; ATCC44859, 48 h) was 125 µM (≈ 36.5 µg/mL). For the same compound, the IC50 at 24 h [12] was 95.4 µM, the MIC ([13]; 24 h) was 125 µM (≈ 36.5 µg/mL) and the MIC ([13]; 48 h) was 250 µM (≈ 72.9 µg/mL). The MIC ([14]; 24 h) was 250 µM (≈ 72.9 µg/mL), the MIC ([14]; 48 h) was 250 µM (≈ 72.9 µg/mL) and the MIC [15] was 125 to 250 µM (≈ 36.5 to 72.9 µg/mL). For the same compound, the MIC [16] was 31.2 mg/L (≈ 107 µM), the MIC [17] was 50 mg/L (≈ 171 µM) and the MIC [18, 30] was 125 µM (≈ 36.5 µg/mL). It also gave an MIC [18, 31] of 125 µM (≈ 36.5 µg/mL), an MIC [19, 32] of 125 µM (≈ 36.5 µg/mL) and an MIC [19, 33] of 250 µM (≈ 72.9 µg/mL). The MIC [20, 34] was 250 µM (≈ 72.9 µg/mL) and the MIC [20, 35] was 250 µM (≈ 72.9 µg/mL).

`O=C(Nc1cnc(Cl)cn1)c1ccccc1O` [Compound 2b] gave a melting point of 197.7 to 198.2 °C, an MIC [1, 22] of 125 µM (≈ 31.2 µg/mL) and an MIC [1, 23] of 125 µM (≈ 31.2 µg/mL). It also gave an MIC ([2]; CCM1961, 72 h) of over 500 µM, an MIC ([2]; CCM1961, 120 h) of over 500 µM and an MIC ([3]; CCM4517, 24 h) of over 500 µM. For the same compound, the MIC ([3]; CCM4517, 48 h) was over 500 µM, the IC50 at 24 h [21] was 545 µM and the IC50 at 48 h [21] was 188 µM. For the same compound, the MIC ([4]; E28, 24 h) was 125 µM (≈ 31.2 µg/mL), the MIC ([4]; E28, 48 h) was 125 µM (≈ 31.2 µg/mL) and the MIC [5, 24] was 12.5 mg/L. The MIC [5, 25] was 50.1 µM, the MIC ([6]; Candida tropicalis, 156, 24 h) was 125 µM (≈ 31.2 µg/mL) and the MIC ([6]; Candida tropicalis, 156, 48 h) was 125 µM (≈ 31.2 µg/mL). The MIC ([7]; SP.J14365/08, 24 h) was over 500 µM, the MIC ([7]; SP.J14365/08, 48 h) was over 500 µM and the MIC [8, 26] was 62.5 µM (≈ 15.6 µg/mL). It also gave an MIC [8, 27] of 125 µM (≈ 31.2 µg/mL), an MIC [9] of 50 mg/L (≈ 200 µM) and an MIC [10, 28] of 15.6 µM (≈ 3.9 µg/mL). For the same compound, the MIC [10, 29] was 15.6 µM (≈ 3.9 µg/mL), the MIC ([11]; ATCC44859, 24 h) was 62.5 µM (≈ 15.6 µg/mL) and the MIC ([11]; ATCC44859, 48 h) was 62.5 µM (≈ 15.6 µg/mL). The IC50 at 24 h [12] was 155 µM, the “MIC MRSA” value ([13]; 24 h) was 62.50 µM (≈ 15.6 µg/mL) and the “MIC MRSA” value ([13]; 48 h) was 62.50 µM (≈ 15.6 µg/mL). It also gave an MIC ([13]; 24 h) of 62.5 µM (≈ 15.6 µg/mL), an MIC ([13]; 48 h) of 62.5 µM (≈ 15.6 µg/mL) and an MIC ([14]; 24 h) of 125 µM (≈ 31.2 µg/mL). For the same compound, the MIC ([14]; 48 h) was 125 µM (≈ 31.2 µg/mL), the MIC [16] was 15.6 mg/L (≈ 62.6 µM) and the MIC [17] was 50 mg/L (≈ 200 µM). It also gave an MIC [18, 30] of 62.5 µM (≈ 15.6 µg/mL), an MIC [18, 31] of 125 µM (≈ 31.2 µg/mL) and an MIC ([19]; 24 h) of 62.50 µM (≈ 15.6 µg/mL). The MIC ([19]; 48 h) was 62.50 µM (≈ 15.6 µg/mL), the MIC [19, 32] was 62.5 µM (≈ 15.6 µg/mL) and the MIC [19, 33] was 62.5 µM (≈ 15.6 µg/mL). It also gave an MIC [20, 34] of 125 µM (≈ 31.2 µg/mL) and an MIC [20, 35] of 125 µM (≈ 31.2 µg/mL).

`O=C(Nc1cnc(Cl)cn1)c1cccc(O)c1` [Compound 2c] gave a melting point of 190.1 to 190.8 °C, an MIC [1, 22] of over 500 µM and an MIC [1, 23] of over 500 µM. It also gave an MIC ([2]; CCM1961, 72 h) of over 500 µM, an MIC ([2]; CCM1961, 120 h) of over 500 µM and an MIC ([3]; CCM4517, 24 h) of over 500 µM. It also gave an MIC ([3]; CCM4517, 48 h) of over 500 µM, an MIC ([4]; E28, 24 h) of over 500 µM and an MIC ([4]; E28, 48 h) of over 500 µM. For the same compound, the “Mtb H37Rv ATCC 27294 MIC” value ([5]; Middlebrook 7H9 with OADC growth supplement, pH = 6.6, MABA) was over 100 mg/L, the MIC [5, 24] was over 100 mg/L and the MIC ([6]; Candida tropicalis, 156, 24 h) was over 500 µM. For the same compound, the MIC ([6]; Candida tropicalis, 156, 48 h) was over 500 µM, the MIC ([7]; SP.J14365/08, 24 h) was over 500 µM and the MIC ([7]; SP.J14365/08, 48 h) was over 500 µM. For the same compound, the MIC [8, 26] was over 500 µM, the MIC [8, 27] was over 500 µM and the MIC [9] was over 100 mg/L. The MIC [10, 28] was 500 µM (≈ 125 µg/mL), the MIC [10, 29] was 500 µM (≈ 125 µg/mL) and the MIC ([11]; ATCC44859, 24 h) was 500 µM (≈ 125 µg/mL). The MIC ([11]; ATCC44859, 48 h) was over 500 µM, the “MIC MRSA” value ([13]; 24 h) was over 500 µM and the “MIC MRSA” value ([13]; 48 h) was over 500 µM. It also gave an MIC ([13]; 24 h) of over 500 µM, an MIC ([13]; 48 h) of over 500 µM and an MIC ([14]; 24 h) of over 500 µM. It also gave an MIC ([14]; 48 h) of over 500 µM, an MIC [15] of at least 500 µM and an MIC [16] of at least 500 mg/L. It also gave an MIC [17] of over 100 mg/L, an MIC [18, 30] of over 500 µM and an MIC [18, 31] of over 500 µM. For the same compound, the MIC ([19]; 24 h) was over 500 µM, the MIC ([19]; 48 h) was over 500 µM and the MIC [19, 32] was over 500 µM. The MIC [19, 33] was over 500 µM, the MIC [20, 34] was over 500 µM and the MIC [20, 35] was over 500 µM.
